Measured values published in ChEMBL document CHEMBL3734695, “Cytotoxic potential of dispirooxindolo/acenaphthoquino andrographolide derivatives against MCF-7 cell line” (Medchemcomm, 2015).
The source made the active and inactive calls. The calls are words filed in the database; no cut-off is given here.

Tested on: MCF7
Assay: Induction of apoptosis in human MCF7 cells assessed as ratio of depolarized to polarized mitochondrial membrane at IC50 by JC-1 dye based FACS analysis
Format: functional, cell-based
Settings: TDE = time-dependent effect

Question: How did the Activity turn out when `C=C1CC[C@@H]2[C@](C)(CO)[C@H](O)CC[C@@]2(C)[C@@H]1CC1CN(Cc2ccccc2)[C@@]2(C(=O)Nc3ccc(Br)cc32)[C@]12C(=O)OC[C@H]2O` (stereo partly specified) was run?
Answer: Its Activity is “tde”.

Tested on: MCF7
Assay: Cell cycle arrest in human MCF7 cells assessed as accumulation at G0/G1 phase at IC50 after 48 hrs by propidium iodide staining based flow cytometric analysis (reference value: 59.5%)
Format: functional
Settings: not given

Question: For `C=C1CC[C@@H]2[C@](C)(CO)[C@H](O)CC[C@@]2(C)[C@@H]1CC1CN(Cc2ccccc2)[C@@]2(C(=O)Nc3ccc(Br)cc32)[C@]12C(=O)OC[C@H]2O` (stereo partly specified), which Activity is on record?
Answer: Its Activity is 34.2%.

Tested on: MCF7
Assay: Induction of apoptosis in human MCF7 cells assessed as increase in cleaved PARP-1 level at IC50 after 48 hrs by western blot analysis
Format: functional, cell-based
Settings: not given

Question: `C=C1CC[C@@H]2[C@](C)(CO)[C@H](O)CC[C@@]2(C)[C@@H]1CC1CN(Cc2ccccc2)[C@@]2(C(=O)Nc3ccc(Br)cc32)[C@]12C(=O)OC[C@H]2O` (stereo partly specified) was tested. Which Activity did it give?
Answer: The Activity was “Active”.

Tested on: MCF7
Assay: Induction of apoptosis in human MCF7 cells assessed as dead cells at IC50 after 48 hrs by annexin V-FITC/propidium iodide staining based flow cytometric analysis (reference value: 0.2%)
Format: functional
Settings: not given

Question: For `C=C1CC[C@@H]2[C@](C)(CO)[C@H](O)CC[C@@]2(C)[C@@H]1CC1CN(Cc2ccccc2)[C@@]2(C(=O)Nc3ccc(Br)cc32)[C@]12C(=O)OC[C@H]2O` (stereo partly specified), which Activity is on record?
Answer: Its Activity is 0%.

Tested on: MCF7
Assay: Induction of apoptosis in human MCF7 cells assessed as rounded cells at IC50 after 24 hrs by inverted phase contrast microscopic analysis
Format: functional, cell-based
Settings: not given

Question: `C=C1CC[C@@H]2[C@](C)(CO)[C@H](O)CC[C@@]2(C)[C@@H]1CC1CN(Cc2ccccc2)[C@@]2(C(=O)Nc3ccc(Br)cc32)[C@]12C(=O)OC[C@H]2O` (stereo partly specified) was tested. Which Activity did it give?
Answer: Its Activity is “Active”.

Tested on: MCF7
Assay: Induction of apoptosis in human MCF7 cells assessed as early apoptotic cells at IC50 after 24 hrs by annexin V-FITC/propidium iodide staining based flow cytometric analysis (reference value: 0.1%)
Format: functional
Settings: not given

Question: `C=C1CC[C@@H]2[C@](C)(CO)[C@H](O)CC[C@@]2(C)[C@@H]1CC1CN(Cc2ccccc2)[C@@]2(C(=O)Nc3ccc(Br)cc32)[C@]12C(=O)OC[C@H]2O` (stereo partly specified) was tested. Which Activity did it give?
Answer: Its Activity is 35.7%.

Tested on: MCF7
Assay: Induction of apoptosis in human MCF7 cells assessed as viable cells at IC50 after 24 hrs by annexin V-FITC/propidium iodide staining based flow cytometric analysis (reference value: 99.8%)
Format: functional
Settings: not given

Question: With `C=C1CC[C@@H]2[C@](C)(CO)[C@H](O)CC[C@@]2(C)[C@@H]1CC1CN(Cc2ccccc2)[C@@]2(C(=O)Nc3ccc(Br)cc32)[C@]12C(=O)OC[C@H]2O` (stereo partly specified) as the molecule, how does the Activity read?
Answer: Its Activity is 61.4%.

Tested on: MCF7
Assay: Induction of apoptosis in human MCF7 cells assessed as early apoptotic cells at IC50 after 48 hrs by annexin V-FITC/propidium iodide staining based flow cytometric analysis (reference value: 0.1%)
Format: functional
Settings: not given

Question: Which Activity does the source give for `C=C1CC[C@@H]2[C@](C)(CO)[C@H](O)CC[C@@]2(C)[C@@H]1CC1CN(Cc2ccccc2)[C@@]2(C(=O)Nc3ccc(Br)cc32)[C@]12C(=O)OC[C@H]2O` (stereo partly specified) here?
Answer: The Activity was 93.9%.

Tested on: MCF7
Assay: Induction of apoptosis in human MCF7 cells assessed as progressive cell detachment at IC50 after 24 hrs by inverted phase contrast microscopic analysis
Format: functional, cell-based
Settings: not given

Question: For `C=C1CC[C@@H]2[C@](C)(CO)[C@H](O)CC[C@@]2(C)[C@@H]1CC1CN(Cc2ccccc2)[C@@]2(C(=O)Nc3ccc(Br)cc32)[C@]12C(=O)OC[C@H]2O` (stereo partly specified), which Activity is on record?
Answer: Its Activity is “Active”.

Tested on: MCF7
Assay: Induction of apoptosis in human MCF7 cells assessed as polarized mitochondrial membrane at IC50 after 24 hrs by JC-1 dye based FACS analysis (reference value: 90%)
Format: functional
Settings: not given

Question: How did the Activity turn out when `C=C1CC[C@@H]2[C@](C)(CO)[C@H](O)CC[C@@]2(C)[C@@H]1CC1CN(Cc2ccccc2)[C@@]2(C(=O)Nc3ccc(Br)cc32)[C@]12C(=O)OC[C@H]2O` (stereo partly specified) was run?
Answer: The Activity was 54.1%.

Tested on: MCF7
Assay: Induction of apoptosis in human MCF7 cells assessed as late apoptotic cells at IC50 after 24 hrs by annexin V-FITC/propidium iodide staining based flow cytometric analysis (reference value: 0.0%)
Format: functional
Settings: not given

Question: For `C=C1CC[C@@H]2[C@](C)(CO)[C@H](O)CC[C@@]2(C)[C@@H]1CC1CN(Cc2ccccc2)[C@@]2(C(=O)Nc3ccc(Br)cc32)[C@]12C(=O)OC[C@H]2O` (stereo partly specified), which Activity is on record?
Answer: The Activity was 2%.

Tested on: MCF7
Assay: Induction of apoptosis in human MCF7 cells assessed as polarized mitochondrial membrane at IC50 after 48 hrs by JC-1 dye based FACS analysis (reference value: 90%)
Format: functional
Settings: not given

Question: For `C=C1CC[C@@H]2[C@](C)(CO)[C@H](O)CC[C@@]2(C)[C@@H]1CC1CN(Cc2ccccc2)[C@@]2(C(=O)Nc3ccc(Br)cc32)[C@]12C(=O)OC[C@H]2O` (stereo partly specified), which Activity is on record?
Answer: The Activity was 6.4%.

Tested on: MCF7
Assay: Induction of apoptosis in human MCF7 cells assessed as dead cells at IC50 after 24 hrs by annexin V-FITC/propidium iodide staining based flow cytometric analysis (reference value: 0.2%)
Format: functional
Settings: not given

Question: With `C=C1CC[C@@H]2[C@](C)(CO)[C@H](O)CC[C@@]2(C)[C@@H]1CC1CN(Cc2ccccc2)[C@@]2(C(=O)Nc3ccc(Br)cc32)[C@]12C(=O)OC[C@H]2O` (stereo partly specified) as the molecule, how does the Activity read?
Answer: The Activity was 0.9%.

Tested on: MCF7
Assay: Induction of apoptosis in human MCF7 cells assessed as increase in cleaved caspase-9 level at IC50 after 48 hrs by western blot analysis
Format: functional, cell-based
Settings: not given

Question: `C=C1CC[C@@H]2[C@](C)(CO)[C@H](O)CC[C@@]2(C)[C@@H]1CC1CN(Cc2ccccc2)[C@@]2(C(=O)Nc3ccc(Br)cc32)[C@]12C(=O)OC[C@H]2O` (stereo partly specified) was tested. Which Activity did it give?
Answer: The Activity was “Active”.

Tested on: MCF7
Assay: Cell cycle arrest in human MCF7 cells assessed as accumulation at G2/M phase at IC50 after 24 hrs by propidium iodide staining based flow cytometric analysis (reference value: 24.2%)
Format: functional
Settings: not given

Question: With `C=C1CC[C@@H]2[C@](C)(CO)[C@H](O)CC[C@@]2(C)[C@@H]1CC1CN(Cc2ccccc2)[C@@]2(C(=O)Nc3ccc(Br)cc32)[C@]12C(=O)OC[C@H]2O` (stereo partly specified) as the molecule, how does the Activity read?
Answer: Its Activity is 31.1%.

Tested on: MCF7
Assay: Induction of apoptosis in human MCF7 cells assessed as late apoptotic cells at IC50 after 48 hrs by annexin V-FITC/propidium iodide staining based flow cytometric analysis (reference value: 0.0%)
Format: functional
Settings: not given

Question: Which Activity does the source give for `C=C1CC[C@@H]2[C@](C)(CO)[C@H](O)CC[C@@]2(C)[C@@H]1CC1CN(Cc2ccccc2)[C@@]2(C(=O)Nc3ccc(Br)cc32)[C@]12C(=O)OC[C@H]2O` (stereo partly specified) here?
Answer: The Activity was 4.4%.

Tested on: MCF7
Assay: Cytotoxicity against human MCF7 cells assessed as growth inhibition after 72 hrs by MTT assay
Format: functional, cell-based
Settings: MCF7, 72 h

Question: Which IC50 does the source give for `C=C1CC[C@@H]2[C@](C)(CO)[C@H](O)CC[C@@]2(C)[C@@H]1CC1CN(Cc2ccccc2)[C@@]2(C(=O)Nc3ccc(Br)cc32)[C@]12C(=O)OC[C@H]2O` (stereo partly specified) here?
Answer: Its IC50 is 12.8 µM.

Tested on: MCF7
Assay: Induction of apoptosis in human MCF7 cells assessed as increase in cleaved caspase-7 level at IC50 after 48 hrs by western blot analysis
Format: functional, cell-based
Settings: not given

Question: Which Activity does the source give for `C=C1CC[C@@H]2[C@](C)(CO)[C@H](O)CC[C@@]2(C)[C@@H]1CC1CN(Cc2ccccc2)[C@@]2(C(=O)Nc3ccc(Br)cc32)[C@]12C(=O)OC[C@H]2O` (stereo partly specified) here?
Answer: The Activity was “Active”.

Tested on: MCF7
Assay: Induction of apoptosis in human MCF7 cells assessed as depolarized mitochondrial membrane at IC50 after 24 hrs by JC-1 dye based FACS analysis (reference value: 10%)
Format: functional
Settings: not given

Question: How did the Activity turn out when `C=C1CC[C@@H]2[C@](C)(CO)[C@H](O)CC[C@@]2(C)[C@@H]1CC1CN(Cc2ccccc2)[C@@]2(C(=O)Nc3ccc(Br)cc32)[C@]12C(=O)OC[C@H]2O` (stereo partly specified) was run?
Answer: The Activity was 46.1%.

Tested on: MCF7
Assay: Induction of apoptosis in human MCF7 cells assessed as viable cells at IC50 after 48 hrs by annexin V-FITC/propidium iodide staining based flow cytometric analysis (reference value: 99.8%)
Format: functional
Settings: not given

Question: With `C=C1CC[C@@H]2[C@](C)(CO)[C@H](O)CC[C@@]2(C)[C@@H]1CC1CN(Cc2ccccc2)[C@@]2(C(=O)Nc3ccc(Br)cc32)[C@]12C(=O)OC[C@H]2O` (stereo partly specified) as the molecule, how does the Activity read?
Answer: Its Activity is 1.7%.

Tested on: MCF7
Assay: Cell cycle arrest in human MCF7 cells assessed as accumulation at S phase at IC50 after 24 hrs by propidium iodide staining based flow cytometric analysis (reference value: 16.3%)
Format: functional
Settings: not given

Question: With `C=C1CC[C@@H]2[C@](C)(CO)[C@H](O)CC[C@@]2(C)[C@@H]1CC1CN(Cc2ccccc2)[C@@]2(C(=O)Nc3ccc(Br)cc32)[C@]12C(=O)OC[C@H]2O` (stereo partly specified) as the molecule, how does the Activity read?
Answer: Its Activity is 28.5%.

Tested on: MCF7
Assay: Induction of apoptosis in human MCF7 cells assessed as depolarized mitochondrial membrane at IC50 after 48 hrs by JC-1 dye based FACS analysis (reference value: 10%)
Format: functional
Settings: not given

Question: Which Activity does the source give for `C=C1CC[C@@H]2[C@](C)(CO)[C@H](O)CC[C@@]2(C)[C@@H]1CC1CN(Cc2ccccc2)[C@@]2(C(=O)Nc3ccc(Br)cc32)[C@]12C(=O)OC[C@H]2O` (stereo partly specified) here?
Answer: The Activity was 93.1%.

Tested on: MCF7
Assay: Cell cycle arrest in human MCF7 cells assessed as accumulation at G2/M phase at IC50 after 48 hrs by propidium iodide staining based flow cytometric analysis (reference value: 24.2%)
Format: functional
Settings: not given

Question: How did the Activity turn out when `C=C1CC[C@@H]2[C@](C)(CO)[C@H](O)CC[C@@]2(C)[C@@H]1CC1CN(Cc2ccccc2)[C@@]2(C(=O)Nc3ccc(Br)cc32)[C@]12C(=O)OC[C@H]2O` (stereo partly specified) was run?
Answer: Its Activity is 22%.

Tested on: MCF7
Assay: Cell cycle arrest in human MCF7 cells assessed as accumulation at G0/G1 phase at IC50 after 24 hrs by propidium iodide staining based flow cytometric analysis (reference value: 59.5%)
Format: functional
Settings: not given

Question: For `C=C1CC[C@@H]2[C@](C)(CO)[C@H](O)CC[C@@]2(C)[C@@H]1CC1CN(Cc2ccccc2)[C@@]2(C(=O)Nc3ccc(Br)cc32)[C@]12C(=O)OC[C@H]2O` (stereo partly specified), which Activity is on record?
Answer: Its Activity is 40.3%.

Tested on: MCF7
Assay: Cell cycle arrest in human MCF7 cells assessed as accumulation at S phase at IC50 after 48 hrs by propidium iodide staining based flow cytometric analysis (reference value: 16.3%)
Format: functional
Settings: not given

Question: `C=C1CC[C@@H]2[C@](C)(CO)[C@H](O)CC[C@@]2(C)[C@@H]1CC1CN(Cc2ccccc2)[C@@]2(C(=O)Nc3ccc(Br)cc32)[C@]12C(=O)OC[C@H]2O` (stereo partly specified) was tested. Which Activity did it give?
Answer: Its Activity is 43%.

Tested on: MCF7
Assay: Induction of ROS generation in human MCF7 cells at IC50 after 24 hrs by CM-H2DCFDA staining based flow cytometric analysis (reference value: 12.6%)
Format: functional
Settings: not given

Question: With `C=C1CC[C@@H]2[C@](C)(CO)[C@H](O)CC[C@@]2(C)[C@@H]1CC1CN(Cc2ccccc2)[C@@]2(C(=O)Nc3ccc(Br)cc32)[C@]12C(=O)OC[C@H]2O` (stereo partly specified) as the molecule, how does the Activity read?
Answer: The Activity was 98.1%.
